Legend:
[1] = tested on: MDA-MB 231 (human breast cancer); test: Crystal Violet viability assay, MDA-MB 231; format: cell-based; conditions: for CVE 24 h / CVE 48 h / CVE 72 h: Run 3 average
Description: (§1) The Sulforhodamine B and Crystal Violet assays provide information about protein and were used to complement the Methyl-Tetrazolium dye assay. […] It is used for the quantification of cellular proteins of cultured cells. The assay using Crystal Violet, a dye that binds electrostatically to proteins and stains DNA, provides a reliable, simple assay for measuring viability of cells.
(§2) The Methyl Tetrazolium, Sulforhodamine B, and Crystal Violet assays were used to assess cell viabilities. The incubation times were 24 hours, 48 hours, and 72 hours. The Nerium oleander extract Anvirzel™ (a hot water extract of oleander obtained from Salud Integral, Honduras) was tested in concentrations ranging from 0.01 ng/mL to 10 ng/mL.
(§3) Cells were detached by trypsinization (Trypsin-0.25% EDTA, Invitrogen, 25200-072) during the logarithmic phase of culture growth and plated in 96-well plates (18.000 cells/well) (Corning, Costar 359) in a final volume of 200 μl of medium per well. […] The absorbance was measured after 24 hours, 48 hours, and 72 hours of incubation.
[…] Formalin was removed and 0.25% aqueous crystal violet (Sigma, HT901), dissolved in water, was added for 10 minutes at RT. Unbound Crystal Violet was rinsed by washing with water and finally 33% acetic acid was added to dissolve the dye.
(§4) The optical density of each plate was measured on a μQuant spectrophotometer and the data were analyzed with Gen5 software (μQuant Biomolecular Spectrophotometer MQX200 and Gen5™ Microplate Data Collection & Analysis software, BioTek® Instruments. Inc, April 2008). Absorbance was measured at 570 nm for all assays and a second wavelength was measured in order to subtract noise. For the Methyl-Tetrazolium assay this second wavelength was 630 nm and for the Sulforhodamine B and Crystal Violet assays it was 690 nm.

[2] = tested on: HCT-116 (colorectal cancer); test: Sulforhodamine B viability assay, HCT-116; format: cell-based, human; design: key: absorbance (optical density) at 570 nm, second wavelength subtracted; conditions: for Average SRB: HCT-116
Description: Three different viability assays were chosen to complement each other and yielded results dependent on concentration and cell line: the Methyl Tetrazolium dye assay, the Sulforhodamine B fluorescent dye assay, and the Crystal Violet dye assay.
as §1, §2, §3
For the Sulforhodamine B assay, 96-well plates were fixed by 10% trichloroacetic acid (Fluka, 91228) and were incubated at 4° C. for 1 hour. Afterwards, plates were rinsed with water and cells were stained with 0.4% Sulforhodamine B (Sigma, 341738), dissolved in 1% acetic acid (Carlo Ebra, 401422) for 15 minutes at room temperature (RT). The unbound stain was washed twice with 1% acetic acid. Finally, 10 mM Tris Buffer pH 10.5 (Sigma, T6791) was added to dissolve the dye.
as §4

With `N.N.[Cl][Pt][Cl]` [cisplatin] the “CVE 24 h Average” value ([1]; Run 1, 0.1 μg/ml CDDP) was 0.161, the “CVE 48 h Average” value ([1]; Run 1, 0.1 μg/ml CDDP) was 0.939 and the “CVE 72 h Average” value ([1]; Run 1, 0.1 μg/ml CDDP) was 0.768. The “CVE 24 h Average” value ([1]; Run 1, 1 μg/ml CDDP) was 0.124, the “CVE 48 h Average” value ([1]; Run 1, 1 μg/ml CDDP) was 0.549 and the “CVE 72 h Average” value ([1]; Run 1, 1 μg/ml CDDP) was 0.375. The “CVE 48 h Average” value ([1]; Run 1, 10 μg/ml CDDP) was 0.586, the “CVE 72 h Average” value ([1]; Run 1, 10 μg/ml CDDP) was 0.416 and the “CVE 24 h Average” value ([1]; Run 1, 100 μg/ml CDDP) was 0.098. For the same compound, the “CVE 48 h Average” value ([1]; Run 1, 100 μg/ml CDDP) was 0.504, the “CVE 72 h Average” value ([1]; Run 1, 100 μg/ml CDDP) was 0.538 and the “CVE 24 h Average” value ([1]; Run 2, 0.1 μg/ml CDDP) was 0.118. The “CVE 48 h Average” value ([1]; Run 2, 0.1 μg/ml CDDP) was 0.305, the “CVE 72 h Average” value ([1]; Run 2, 0.1 μg/ml CDDP) was 0.485 and the “CVE 24 h Average” value ([1]; Run 2, 1 μg/ml CDDP) was 0.042. The “CVE 48 h Average” value ([1]; Run 2, 1 μg/ml CDDP) was 0.047, the “CVE 72 h Average” value ([1]; Run 2, 1 μg/ml CDDP) was 0.036 and the “CVE 24 h Average” value ([1]; Run 2, 10 μg/ml CDDP) was 0.125. For the same compound, the “CVE 48 h Average” value ([1]; Run 2, 10 μg/ml CDDP) was 0.27, the “CVE 72 h Average” value ([1]; Run 2, 10 μg/ml CDDP) was 0.301 and the “CVE 24 h Average” value ([1]; Run 2, 100 μg/ml CDDP) was 0.074. The “CVE 48 h Average” value ([1]; Run 2, 100 μg/ml CDDP) was 0.062, the “CVE 72 h Average” value ([1]; Run 2, 100 μg/ml CDDP) was 0.11 and the “CVE 24 h” value ([1]; 0.1 μg/ml CDDP) was 1.198. The “CVE 48 h” value ([1]; 0.1 μg/ml CDDP) was 1.239, the “CVE 72 h” value ([1]; 0.1 μg/ml CDDP) was 1.573 and the “CVE 24 h” value ([1]; 1 μg/ml CDDP) was 0.528. The “CVE 48 h” value ([1]; 1 μg/ml CDDP) was 0.231, the “CVE 72 h” value ([1]; 1 μg/ml CDDP) was 0.144 and the “CVE 24 h” value ([1]; 10 μg/ml CDDP) was 0.693. The “CVE 48 h” value ([1]; 10 μg/ml CDDP) was 0.79, the “CVE 72 h” value ([1]; 10 μg/ml CDDP) was 0.472 and the “CVE 24 h” value ([1]; 100 μg/ml CDDP) was 0.168. The “CVE 48 h” value ([1]; 100 μg/ml CDDP) was 0.154, the “CVE 72 h” value ([1]; 100 μg/ml CDDP) was 0.089 and the “SRB Average” value ([2]; HCT-116, Run 3, 24 h, 0.1 μg/ml CDDP) was 2.01. For the same compound, the “SRB Average” value ([2]; HCT-116, Run 3, 24 h, 1 μg/ml CDDP) was 2.129, the “SRB Average” value ([2]; HCT-116, Run 3, 24 h, 10 μg/ml CDDP) was 2.05 and the “SRB Average” value ([2]; HCT-116, Run 3, 24 h, 100 μg/ml CDDP) was 2.084. The “SRB Average” value ([2]; HCT-116, Run 3, 48 h, 0.1 μg/ml CDDP) was 1.933, the “SRB Average” value ([2]; HCT-116, Run 3, 48 h, 1 μg/ml CDDP) was 1.394 and the “SRB Average” value ([2]; HCT-116, Run 3, 48 h, 10 μg/ml CDDP) was 1.353. For the same compound, the “SRB Average” value ([2]; HCT-116, Run 3, 48 h, 100 μg/ml CDDP) was 1.136, the “SRB Average” value ([2]; HCT-116, Run 3, 72 h, 0.1 μg/ml CDDP) was 2.357 and the “SRB Average” value ([2]; HCT-116, Run 3, 72 h, 1 μg/ml CDDP) was 1.78. The “SRB Average” value ([2]; HCT-116, Run 3, 72 h, 10 μg/ml CDDP) was 1.876, the “SRB Average” value ([2]; HCT-116, Run 3, 72 h, 100 μg/ml CDDP) was 1.404 and the “Average SRB” value ([2]; Run 1, 24 h, 0.1 μg/ml CDDP) was 1.56. For the same compound, the “Average SRB” value ([2]; Run 1, 24 h, 1 μg/ml CDDP) was 1.606, the “Average SRB” value ([2]; Run 1, 24 h, 10 μg/ml CDDP) was 1.527 and the “Average SRB” value ([2]; Run 1, 24 h, 100 μg/ml CDDP) was 1.736. For the same compound, the “Average SRB” value ([2]; Run 1, 48 h, 0.1 μg/ml CDDP) was 2.278, the “Average SRB” value ([2]; Run 1, 48 h, 1 μg/ml CDDP) was 2.16 and the “Average SRB” value ([2]; Run 1, 48 h, 10 μg/ml CDDP) was 2.055. For the same compound, the “Average SRB” value ([2]; Run 1, 48 h, 100 μg/ml CDDP) was 1.169, the “Average SRB” value ([2]; Run 1, 72 h, 0.1 μg/ml CDDP) was 2.449 and the “Average SRB” value ([2]; Run 1, 72 h, 1 μg/ml CDDP) was 1.569. For the same compound, the “Average SRB” value ([2]; Run 1, 72 h, 10 μg/ml CDDP) was 1.67, the “Average SRB” value ([2]; Run 1, 72 h, 100 μg/ml CDDP) was 1.616 and the “Average SRB” value ([2]; Run 2, 24 h, 0.1 μg/ml CDDP) was 1.357. The “Average SRB” value ([2]; Run 2, 24 h, 1 μg/ml CDDP) was 1.199, the “Average SRB” value ([2]; Run 2, 24 h, 10 μg/ml CDDP) was 1.056 and the “Average SRB” value ([2]; Run 2, 24 h, 100 μg/ml CDDP) was 1.173. For the same compound, the “Average SRB” value ([2]; Run 2, 48 h, 0.1 μg/ml CDDP) was 2.886, the “Average SRB” value ([2]; Run 2, 48 h, 1 μg/ml CDDP) was 2.878 and the “Average SRB” value ([2]; Run 2, 48 h, 10 μg/ml CDDP) was 2.746. The “Average SRB” value ([2]; Run 2, 48 h, 100 μg/ml CDDP) was 2.664, the “Average SRB” value ([2]; Run 2, 72 h, 0.1 μg/ml CDDP) was 2.909 and the “Average SRB” value ([2]; Run 2, 72 h, 1 μg/ml CDDP) was 2.703. The “Average SRB” value ([2]; Run 2, 72 h, 10 μg/ml CDDP) was 2.728 and the “Average SRB” value ([2]; Run 2, 72 h, 100 μg/ml CDDP) was 2.514.

From patent publication US20190343908A1, “Therapeutic Combination for the Treatment of Cancer” (Nerium Biotechnology Inc., priority 2011, published 2019)
